In brackets after ≈: the same amount, converted by molar mass. Read-outs that look alike come from different tables or passages of the source.
Key:
[1] = molecular target: K. pneumoniae LpxH (KpLpxH) (Klebsiella pneumoniae subsp. pneumoniae (strain ATCC 700721 / MGH 78578), UniProt A6T5R0); assay: LpxE-coupled malachite green LpxH activity assay (KpLpxH inhibition); assay type: biochemical; conditions: for remaining activity at 0.1 µM / inhibition at 0.1 µM / Percentage Activity of KpLpxH (vi/v0): 0.1 μM inhibitor; for remaining activity at 0.1 µM / Percentage Activity of KpLpxH (vi/v0): normalized against KpLpxH activity in 10% DMSO; for remaining activity at 0.1 µM: read-out: Percentage Activity of KpLpxH (vi/v0); for inhibition at 0.1 µM: read-out: Percentage Inhibition of KpLpxH
Protocol: Evaluation of LpxH inhibition by analogs: After completing the synthesis of sulfonyl piperazine compounds with various forms of linkers, the KpLpxH inhibition was biochemically characterized by these analogs at 0.1 μM using the nonradioactive, colorimetric malachite green assay that we had previously reported. […] Such an enhanced potency requires the presence of the hydroxamate group, as its substitution with a carboxylate group in compound 7 reduced the compound activity (vi/v0=30±6%).
The LpxE-coupled LpxH activity assay was conducted as described previously using the GB1-K. pneumoniae LpxH-His10 fusion protein. Briefly, two reaction mixtures were prepared. Mixture 1 contains 20 mM Tris-HCl (pH 8.0), 0.5 mg/mL BSA, 0.02% Triton X-100, 1 mM MnCl2, 1 mM DTT, 10% DMSO, and 200 µM substrate (UDP-DAGn), and mixture 2 is comprised of the same buffer, but instead of substrate, contains both LpxH (20 ng/ml) and 2× inhibitor. These mixtures were then pre-incubated at 37° C. for 10 min. To initiate the reaction, an equal volume of the LpxH mixture (mixture 2) was added to the substrate mixture (mixture 1) at 37° C. The final reaction solution contains 100 μM substrate, 10 ng/ml enzyme, and 1× inhibitor. At the desired reaction time points, an aliquot of 20 μL reaction mixture was removed and added to a well in 96-well half-area plate containing 5 mM EDTA (final concentration) to quench the LpxH reaction. Purified Aquifex aeolicus LpxE was then added to a final concentration of 5 μg/mL. The plate was incubated at 37° C. for 30 min followed by addition of formic acid to a final concentration of 3.75 M to quench the LpxE reaction. The malachite green reagent (Sigma Aldrich, catalog MAK307) was diluted 5-fold into the solutions, and the plate was incubated for 30 min at room temperature before the absorbance at 620 nm was measured. All measurements were done in triplicates, and standard error (S.E.) was calculated.

[2] = tested on: K. pneumoniae (ATCC 10031); assay: MIC assay (broth microdilution), K. pneumoniae; assay type: cell-based; conditions: Klebsiella pneumoniae, ATCC10031
Protocol: The MIC assay protocol was adapted from the broth microdilution methods described by the National Committee for Clinical Laboratory Standards using 96-well plates as described previously. In brief, overnight bacterial cultures were diluted to an OD600 of 0.006 in cation-adjusted Mueller-Hinton medium containing 7% DMSO and incubated at 37° C. for 22 h in the presence of varying concentrations of inhibitors. Following overnight incubation, each well is treated with 10 μL of 3-(4,5-dimethylthiazol-2-yl)-2,5-diphenyltetrazolium bromide (MTT, 5 mg/mL) for 3 h. Finally, the culture is solubilized by addition of 2-propanol, and the results are read by taking the difference of the UV reading at both 570 and 690 nm. MIC values were reported as the lowest compound concentration that inhibited bacterial growth. The baseline for inhibited cell growth was determined to be <4× the average control reading due to the baseline optical density of the initial starting bacterial culture.

[3] = Table 5, read-out: IC50: Average
[4] = Table 4, read-out: MIC - K. pneumoniae (ATCC 10031)
[5] = K. pneumoniae (ATCC 10031), in vitro, read-out: MIC

Structure (SMILES): CC(=O)N1CCc2cc(S(=O)(=O)N3CCN(c4cc(F)cc(C(F)(F)F)c4)CC3)ccc21 [JH-LPH-28]
- IC50 [1, 3]: 139 nM
- MIC [2, 4]: 3 µg/mL (≈ 6.36 µM)

Structure (SMILES): O=C(CCCCNC(=O)Nc1ccc(S(=O)(=O)N2CCN(c3cc(Cl)cc(C(F)(F)F)c3)CC2)cc1)NO [JH-LPH-41]
- remaining activity at 0.1 µM [1]: 36%
- inhibition at 0.1 µM [1]: 64%
- IC50 [1, 3]: 73 nM
- MIC [2, 4]: 10.7 µg/mL (≈ 18.5 µM)

Structure (SMILES): CC(=O)n1ccc2cc(S(=O)(=O)N3CCN(c4cc(Cl)cc(C(F)(F)F)c4)CC3)ccc21 [JH-LPH-42]
- MIC [2, 4]: > 64 µg/mL

Structure (SMILES): O=C(CCCCNC(=O)N1CCc2cc(S(=O)(=O)N3CCN(c4cc(Cl)cc(C(F)(F)F)c4)CC3)ccc21)NO [JH-LPH-45]
- IC50 [1]: 18 nM
- Ki [1]: 7.3 nM
- Percentage Activity of KpLpxH (vi/v0) ([1]; listed as 8 (JH-LPH-45)): 18 ± 1%
- remaining activity at 0.1 µM [1]: 18 ± 1%
- inhibition at 0.1 µM [1]: 82%
- IC50 [1, 3]: 17 nM
- MIC [2, 5]: 18.7 µg/mL (≈ 31 µM)
- MIC [2, 4]: 18.7 µg/mL (≈ 30.9 µM)

Structure (SMILES): O=C(CCCCCC(=O)N1CCc2cc(S(=O)(=O)N3CCN(c4cc(Cl)cc(C(F)(F)F)c4)CC3)ccc21)NO [JH-LPH-46]
- Percentage Activity of KpLpxH (vi/v0) ([1]; listed as 10 (JH-LPH-46)): 93 ± 7%
- remaining activity at 0.1 µM [1]: 93 ± 7%
- inhibition at 0.1 µM [1]: 7%

Structure (SMILES): CS(=O)(=O)N1CCc2cc(S(=O)(=O)N3CCN(c4cc(Cl)cc(C(F)(F)F)c4)CC3)ccc21 [JH-LPH-47]
- MIC [2, 4]: > 64 µg/mL

Structure (SMILES): CC(=O)N1CCc2cc(S(=O)(=O)N3CCN(c4cc(Br)cc(C(F)(F)F)c4)CC3)ccc21 [JH-LPH-48]
- IC50 [1, 3]: 49 nM
- MIC [2, 4]: > 64 µg/mL

Structure (SMILES): CC(=O)N1CCc2cc(S(=O)(=O)N3CCN(c4cc(C)cc(C(F)(F)F)c4)CC3)ccc21 [JH-LPH-49]
- IC50 [1, 3]: 152 nM
- MIC [2, 4]: 18.7 µg/mL (≈ 39.9 µM)

Structure (SMILES): O=C(CCCCCNC(=O)Nc1ccc(S(=O)(=O)N2CCN(c3cc(Cl)cc(C(F)(F)F)c3)CC2)cc1)NO [JH-LPH-50]
- Ki [1]: 3.1 nM
- Percentage Activity of KpLpxH (vi/v0) ([1]; listed as 13 (JH-LPH-50)): 3 ± 2%
- remaining activity at 0.1 µM [1]: 3 ± 2%
- inhibition at 0.1 µM [1]: 97%
- IC50 ([1]; IC50 curves FIG. 3E/4E, read-out: IC50 of KpLpxH inhibition): 7.7 nM
- IC50 [1, 3]: 8 nM
- MIC [2, 5]: 3.3 µg/mL (≈ 5.57 µM)
- MIC [2, 4]: 3.33 µg/mL (≈ 5.62 µM)

Structure (SMILES): O=C(O)CCCCCNC(=O)Nc1ccc(S(=O)(=O)N2CCN(c3cc(Cl)cc(C(F)(F)F)c3)CC2)cc1 [JH-LPH-54]
- Percentage Activity of KpLpxH (vi/v0) ([1]; listed as 12 (JH-LPH-54)): 57 ± 3%
- remaining activity at 0.1 µM [1]: 57 ± 3%
- inhibition at 0.1 µM [1]: 43%

Structure (SMILES): O=C(O)CCCCNC(=O)N1CCc2cc(S(=O)(=O)N3CCN(c4cc(Cl)cc(C(F)(F)F)c4)CC3)ccc21 [JH-LPH-55]
- Percentage Activity of KpLpxH (vi/v0) ([1]; listed as 7 (JH-LPH-55)): 30 ± 6%
- remaining activity at 0.1 µM [1]: 30 ± 6%
- inhibition at 0.1 µM [1]: 70%

Structure (SMILES): O=C(NCCCCc1cccn(O)c1=S)Nc1ccc(S(=O)(=O)N2CCN(c3cc(Cl)cc(C(F)(F)F)c3)CC2)cc1 [JH-LPH-60]
- Percentage Activity of KpLpxH (vi/v0) ([1]; listed as 15 (JH-LPH-60)): 39 ± 6%
- remaining activity at 0.1 µM [1]: 39 ± 6%
- inhibition at 0.1 µM [1]: 61%

Structure (SMILES): O=C(NCCn1cc(C(=O)O)nn1)Nc1ccc(S(=O)(=O)N2CCN(c3cc(Cl)cc(C(F)(F)F)c3)CC2)cc1 [JH-LPH-61]
- MIC [2, 4]: > 64 µg/mL

Structure (SMILES): O=C(NCCn1cc(C(=O)NO)nn1)Nc1ccc(S(=O)(=O)N2CCN(c3cc(Cl)cc(C(F)(F)F)c3)CC2)cc1 [JH-LPH-62]
- Percentage Activity of KpLpxH (vi/v0) ([1]; listed as 20 (JH-LPH-62)): 59 ± 7%
- remaining activity at 0.1 µM [1]: 59 ± 7%
- inhibition at 0.1 µM [1]: 41%
- MIC [2, 4]: 24 µg/mL (≈ 38.9 µM)

Structure (SMILES): O=C(/C=C/CCCNC(=O)Nc1ccc(S(=O)(=O)N2CCN(c3cc(Cl)cc(C(F)(F)F)c3)CC2)cc1)NO [JH-LPH-64]
- Percentage Activity of KpLpxH (vi/v0) ([1]; listed as 18 (JH-LPH-64)): 34 ± 7%
- remaining activity at 0.1 µM [1]: 34 ± 7%
- inhibition at 0.1 µM [1]: 66%
- MIC [2, 4]: 20 µg/mL (≈ 33.9 µM)

Structure (SMILES): O=C(CC/C=C/CCC(=O)Nc1ccc(S(=O)(=O)N2CCN(c3cc(Cl)cc(C(F)(F)F)c3)CC2)cc1)NO [JH-LPH-66]
- MIC [2, 4]: 26.7 µg/mL (≈ 45.3 µM)

Structure (SMILES): O=C(CCCCCCC(O)Cn1cncn1)Nc1ccc(S(=O)(=O)N2CCN(c3cc(Cl)cc(C(F)(F)F)c3)CC2)cc1 (stereo not drawn) [JH-LPH-68]
- MIC [2, 4]: 28 µg/mL (≈ 43.5 µM)

Structure (SMILES): NCC(=O)N1CCc2cc(S(=O)(=O)N3CCN(c4cc(Cl)cc(C(F)(F)F)c4)CC3)ccc21 [JH-LPH-71]
- MIC [2, 4]: 8 µg/mL (≈ 15.9 µM)

Structure (SMILES): CN(C)CC(=O)N1CCc2cc(S(=O)(=O)N3CCN(c4cc(Cl)cc(C(F)(F)F)c4)CC3)ccc21 [JH-LPH-72]
- MIC [2, 4]: > 64 µg/mL

Structure (SMILES): O=C(CCCn1cc(C(=O)Nc2ccc(S(=O)(=O)N3CCN(c4cc(Cl)cc(C(F)(F)F)c4)CC3)cc2)nn1)NO [JH-LPH-74]
- MIC [2, 4]: > 64 µg/mL

Structure (SMILES): NC(=O)N1CCc2cc(S(=O)(=O)N3CCN(c4cc(Cl)cc(C(F)(F)F)c4)CC3)c(F)cc21 [JH-LPH-75]
- MIC [2, 4]: > 64 µg/mL

Structure (SMILES): NC(=O)N1CCc2cc(S(=O)(=O)N3CCN(c4cc(Cl)cc(C(F)(F)F)c4)CC3)c(Cl)cc21 [JH-LPH-76]
- MIC [2, 4]: > 64 µg/mL

Structure (SMILES): CS(=O)(=O)Nc1ccc(S(=O)(=O)N2CCN(c3cc(Cl)cc(C(F)(F)F)c3)CC2)cc1 [JH-LPH-77]
- MIC [2, 4]: > 64 µg/mL

Structure (SMILES): O=C(COCc1ccc2nonc2c1)N1CCc2cc(S(=O)(=O)N3CCN(c4cc(Cl)cc(C(F)(F)F)c4)CC3)ccc21 [JH-LPH-79]
- IC50 [1, 3]: 37 nM

Structure (SMILES): O=C(NO)c1ccc(-c2ccccc2C(=O)Nc2ccc(S(=O)(=O)N3CCN(c4cc(Cl)cc(C(F)(F)F)c4)CC3)cc2)cc1 [JH-LPH-80]
- IC50 [1, 3]: 431 nM

Structure (SMILES): CC(=O)N1CCc2cc(S(=O)(=O)N3CCN(C4CCCCC4)CC3)ccc21 [JH-LPH-81]
- MIC [2, 4]: 32 µg/mL (≈ 81.7 µM)

Structure (SMILES): CCOC(=O)c1ccc(N2CCN(S(=O)(=O)c3ccc4c(c3)CCN4C(C)=O)CC2)cc1 [JH-LPH-82]
- MIC [2, 4]: > 64 µg/mL

Structure (SMILES): C/C=C/CN1CCN(S(=O)(=O)c2ccc3c(c2)CCN3C(C)=O)CC1 [JH-LPH-83]
- MIC [2, 4]: 64 µg/mL (≈ 176 µM)

Structure (SMILES): CCCCN1CCN(S(=O)(=O)c2ccc3c(c2)CCN3C(C)=O)CC1 [JH-LPH-84]
- MIC [2, 4]: 32 µg/mL (≈ 87.6 µM)

Structure (SMILES): CC(=O)N1CCc2cc(S(=O)(=O)N3CCN(c4nc(C(F)(F)F)cs4)CC3)ccc21 [JH-LPH-85]
- MIC [2, 4]: 12 µg/mL (≈ 26.1 µM)

Structure (SMILES): CC(=O)N1CCc2cc(S(=O)(=O)N3CCN(c4cc(C(F)(F)F)ccn4)CC3)ccc21 [JH-LPH-86]
- MIC [2, 4]: 0.125 µg/mL (≈ 0.275 µM)

Structure (SMILES): NC(=O)N1CCc2cc(S(=O)(=O)N3CCN(c4cccc(C(F)(F)F)n4)CC3)ccc21 [JH-LPH-94]
- MIC [2, 4]: > 64 µg/mL

Structure (SMILES): NCCNC(=O)N1CCc2cc(S(=O)(=O)N3CCN(c4cc(C(F)(F)F)cc(Cl)n4)CC3)ccc21 [JH-LPH-95]
- MIC [2, 4]: 4 µg/mL (≈ 7.51 µM)

Structure (SMILES): NCCCNC(=O)N1CCc2cc(S(=O)(=O)N3CCN(c4cc(C(F)(F)F)cc(Cl)n4)CC3)ccc21 [JH-LPH-98]
- IC50 [1, 3]: 24 nM

Structure (SMILES): NCCCCNC(=O)N1CCc2cc(S(=O)(=O)N3CCN(c4cc(C(F)(F)F)cc(Cl)n4)CC3)ccc21 [JH-LPH-99]
- IC50 [1, 3]: 11 nM

From US20240279174A1, “ANTIBIOTICS COMPRISING LPXH-TARGETING COMPOUNDS AND METHODS OF MAKING AND USING THE SAME” (Duke University, priority 2019, published 2024)
